Test results: patent US20200010910A1, “Cytotoxic Chemotherapy-Based Predictive Assays for Acute Myeloid Leukemia” (The Regents of The University of California, priority 2017, published 2020)

Legend:
PDX Model BL0645 = assay: drug-DNA adducts in PDX tumor by AMS; type: in vivo, NSG mice; details: 24 h
Excerpt: (§1) Female NSG mice (5-8 weeks of age, body weight: 20 to 25 g) were obtained from Jackson Laboratories (CA, USA). All animals were kept under pathogen-free conditions and were allowed to acclimatize for at least 4 days prior to any experiments. PDX models bearing the indicated patient derived xenografts were created by subcutaneous injection at the flank of 1 mm^3 tumor tissue. To establish multiple PDXs to allow efficacy studies with multiple drugs, PDXs from passage 2-4 were minced into 1 mm^3 sections and injected subcutaneously into multiple mice. At least 3 mice were used for each treatment group. Tumors were allowed to grow to at about 100 mm^3 before being assessed for drug sensitivity or the induction of DNA adducts by the administration of a microdose or a therapeutic dose of labeled drug. To assess tumor response to chemotherapy, cisplatin was administered at 2 mg/kg IV every 7 days for a total of 3 cycles, or gemcitabine was administered at 150 mg/kg IP every 7 days for a total of 4 cycles. G/C combination chemotherapy consisted of the simultaneous administration of both drugs using the schema described above. Tumor growth was assessed by measuring palpable tumors with a caliper and calculating tumor volume. Drug-DNA adduct frequencies were measured in tumor tissue collected 24 hours after intravenous injection of labeled drug and stored at −80° C. until DNA isolation. DNA was isolated using a modified Wizard procedure (Promega), quantitated by spectrophotometry, and then stored frozen at −20° C. until AMS analysis. Ten micrograms of DNA per sample was converted to graphite and measured by AMS for 14C quantification as previously described.
(§2) NSG mice bearing the indicated PDX tumors were injected with a microdose of ^14C-labeled carboplatin (FIG. 22A) or ^14C-labeled gemcitabine (FIG. 22B). The microdose of ^14C-labeled carboplatin was 0.375 mg/kg carboplatin, 50,000 dpm/g. The microdose of ^14C-labeled gemcitabine was 0.092 mg/kg gemcitabine, 1000 dpm/g. The doses of each drug administered to the mice were chosen to target 1 μM in plasma concentration of carboplatin and 0.3 μM in plasma concentration of gemcitabine. These plasma concentrations represent 1% of the approximate peak plasma concentration during human chemotherapy. Animals were sacrificed after 24 h and drug-DNA adduct frequency was determined from collected tumor tissue by AMS measurements of ^14C in tumor DNA. Carboplatin DNA-adduct levels correlate with PDX model sensitivity to cisplatin at 24 h after microdosing (FIG. 22A). Gemcitabine DNA-adduct levels correlate with PDX model sensitivity to gemcitabine at 24 h after microdosing (FIG. 22B). […] There is no significant difference in carboplatin-DNA monoadduct levels between the three resistant PDX models. […] We conclude that microdose induced carboplatin-DNA monoadducts predicts sensitivity to cisplatin chemotherapy, and microdose induced gemcitabine incorporation predicts sensitivity to gemcitabine chemotherapy.
(§3) In this example we test whether gemcitabine/carboplatin (G/Carbo) combination therapy has an effect on the formation of drug-DNA adducts in this synergistic tumor model. In FIG. 23A, NGS mice bearing BL0645 xenographs were administered via tail vein injection a therapeutic dose of [^14C]carboplatin alone or a therapeutic dose of [^14C]carboplatin in combination with a therapeutic dose of gemcitabine. Carboplatin-DNA monoadducts were measured in tumor tissue 24 h after dosing. A therapeutic dose of the combination [^14C]carboplatin plus unlabeled gemcitabine leads to a significant increase in carboplatin-DNA monoadduct level (94.84±16.02 versus 209.6±64.66 adducts per 10^8 nucleotides, p=0.032) compared to treatment with carboplatin alone. In FIG. 23B, the same experiment was conducted in which the mice received a therapeutic dose of [^14C]gemcitabine alone or a therapeutic dose of [^14C]gemcitabine in combination with a therapeutic dose of unlabeled carboplatin. […]

PDX Model BL0269 = assay: drug-DNA adducts in PDX tumor by AMS; type: in vivo, NSG mice
Excerpt: as §1, §2, §3

H727 = assay: carboplatin-DNA monoadducts by AMS; type: cell-based, human
Description: (§4) NSCLC cell lines were cultured to >90% confluence, dosed with [^14C]carboplatin, and subjected to DNA isolation and AMS analysis. 60 mm dishes were seeded at a density of 1×10^6 cells/dish and allowed to attach overnight in a 37° C. humidified atmosphere containing 5% CO2. At hour 0, cells were dosed with 1 μM (relevant microdose concentration) or 100 μM carboplatin (therapeutically relevant concentration), each comprising 0.3 μM [^14C]carboplatin (50,000 dpm/ml). Cells were incubated with [^14C]carboplatin for 4 h before washing and cultured with carboplatin-free medium to mimic the in vivo carboplatin half-life (1.3-6 hours) in patients. DNA was harvested from the cell lines at hours 0, 2, 4, 8 and 24 hours after initial dosing. Ten micrograms of DNA per sample was converted to graphite and measured by AMS for ^14C/total C quantification. Triplicate sets of AMS experiments were performed for each cell line and time point. The 14C/total C ratio was converted to 14C atoms per DNA base-pair according to the algorithm described herein to provide values of carboplatin-DNA monoadducts per 10^8 nucleotides. The data was plotted as carboplatin-DNA monoadducts per 10^8 nucleotide (nt) vs time (FIGS. 8A and 8B). There was a time-dependent increase in the carboplatin-DNA monoadduct concentration during the first 4 hours of incubation with therapeutic or microdosing carboplatin (FIGS. 8A and 8B). After the cells were washed and incubated with carboplatin-free media, the monoadduct levels decreased over a period of several hours. […] Carboplatin-DNA monoadduct levels in the microdosing group had essentially the same kinetics as the therapeutic group, but with 100-fold lower adduct levels at each time point (FIGS. 8A and 8B).

H23 = assay: carboplatin-DNA monoadducts by AMS; type: cell-based, human
Description: as §4

HCC827 = assay: carboplatin-DNA monoadducts by AMS; type: cell-based, human
Description: as §4

A549 = assay: carboplatin-DNA monoadducts by AMS; type: cell-based, human
Description: as §4

H1975 = assay: carboplatin-DNA monoadducts by AMS; type: cell-based, human
Description: as §4

[1] = 1 μM carboplatin 4 h, up to 24 hours
[2] = 1 μM carboplatin 4 h then drug-free
[3] = 100 μM carboplatin 4 h, up to 24 hours
[4] = 100 μM carboplatin 4 h then drug-free

N.N.O=C([O-])C1(C(=O)[O-])CCC1.[Pt+2] [carboplatin]
mean carboplatin-DNA monoadduct level (PDX Model BL0645; microdose 0.375 mg/kg carboplatin alone or with gemcitabine 0.092 mg/kg): 1.27±0.307 adducts per 10^8 nucleotides | carboplatin-DNA monoadduct level (PDX Model BL0645; therapeutic 37.5 mg/kg carboplatin alone or with gemcitabine 9.2 mg/kg): 94.84±16.02 adducts per 10^8 nucleotides | Carboplatin-DNA monoadduct levels (PDX Model BL0269; control experiment FIG. 23E, microdose single agent or G/Carbo combination): 1.85±0.798 adducts per 10^8 nucleotides | mean carboplatin-DNA monoadduct level (PDX Model BL0269; microdose 0.375 mg/kg carboplatin, 24 h (FIG. 22A)): 1.77±0.706 adducts per 10^8 nucleotides | Adduct level-4 hr-microdose (H727; 1 μM carboplatin): 6.23 ± 2.73 /10^8 nt | AUC of adduct-microdose (H727; [1]): 61.7 ± 9.0 hr-adducts/10^8 nt | Adduct level-24 hr Microdose (H727; [2]): 1.3 ± 0.1 /10^8 nt | Adduct level-4 hr-therapeutic (H727; 100 μM carboplatin): 684 ± 223.5 /10^8 nt | AUC of adduct-therapeutic (H727; [3]): 6111 ± 661 hr-adducts/10^8 nt | Adduct level-24 hr-therapeutic (H727; [4]): 174 ± 5.6 /10^8 nt | Adduct level-4 hr-microdose (H23; 1 μM carboplatin): 7.4 ± 1.4 /10^8 nt | AUC of adduct-microdose (H23; [1]): 136.6 ± 9.0 hr-adducts/10^8 nt | Adduct level-24 hr Microdose (H23; [2]): 5.4 ± 0.1 /10^8 nt | Adduct level-4 hr-therapeutic (H23; 100 μM carboplatin): 825 ± 5.8 /10^8 nt | AUC of adduct-therapeutic (H23; [3]): 13255 ± 835 hr-adducts/10^8 nt | Adduct level-24 hr-therapeutic (H23; [4]): 414 ± 27.1 /10^8 nt | Adduct level-4 hr-microdose (HCC827; 1 μM carboplatin): 2.5 ± 0.0 /10^8 nt | AUC of adduct-microdose (HCC827; [1]): 51.7 ± 2.4 hr-adducts/10^8 nt | Adduct level-24 hr Microdose (HCC827; [2]): 1.8 ± 0.3 /10^8 nt | Adduct level-4 hr-therapeutic (HCC827; 100 μM carboplatin): 295 ± 58.8 /10^8 nt | AUC of adduct-therapeutic (HCC827; [3]): 4941 ± 739 hr-adducts/10^8 nt | Adduct level-24 hr-therapeutic (HCC827; [4]): 162 ± 15.4 /10^8 nt | Adduct level-4 hr-microdose (A549; 1 μM carboplatin): 2.0 ± 0.4 /10^8 nt | AUC of adduct-microdose (A549; [1]): 31.5 ± 1.6 hr-adducts/10^8 nt | Adduct level-24 hr Microdose (A549; [2]): 0.9 ± 0.0 /10^8 nt | Adduct level-4 hr-therapeutic (A549; 100 μM carboplatin): 163 ± 74.4 /10^8 nt | AUC of adduct-therapeutic (A549; [3]): 2331 ± 257 hr-adducts/10^8 nt | Adduct level-24 hr-therapeutic (A549; [4]): 74 ± 10.4 /10^8 nt | Adduct level-4 hr-microdose (H1975; 1 μM carboplatin): 3.3 ± 0.5 /10^8 nt | AUC of adduct-microdose (H1975; [1]): 47.0 ± 4.8 hr-adducts/10^8 nt | Adduct level-24 hr Microdose (H1975; [2]): 1.1 ± 0.6 /10^8 nt | Adduct level-4 hr-therapeutic (H1975; 100 μM carboplatin): 322 ± 24.1 /10^8 nt | AUC of adduct-therapeutic (H1975; [3]): 4478 ± 353 hr-adducts/10^8 nt | Adduct level-24 hr-therapeutic (H1975; [4]): 108 ± 33.3 /10^8 nt
